Test results published in publication PMC5607274, “An iterative compound screening contest method for identifying target protein inhibitors using the tyrosine-protein kinase Yes” (Scientific Reports, 2017).

Target: T1, human recombinant Yes [a.a. 2–543 (end)] (Homo sapiens, UniProt P07947)
T1 construct: human recombinant Yes [a.a; 2–543 (end)]; purchased BPS Bioscience 40488
Experiment: ADP-Glo kinase assay, inhibition rates of Yes phosphorylation activity (first and second screening)
Assay type: biochemical
Conditions: first screening; mean of n = 4 wells; 10 μmol L−1 compound
In short: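 Hits from a first pass were rescreened after re-dissolution from fresh powder. The first pass reported the mean inhibition rate of quadruplicate wells per compound. Activity was that of recombinant human Yes [a.a. 2–543] kinase, read out with the ADP-Glo ADP-detection method.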

T1 sequence (P07947 2-543): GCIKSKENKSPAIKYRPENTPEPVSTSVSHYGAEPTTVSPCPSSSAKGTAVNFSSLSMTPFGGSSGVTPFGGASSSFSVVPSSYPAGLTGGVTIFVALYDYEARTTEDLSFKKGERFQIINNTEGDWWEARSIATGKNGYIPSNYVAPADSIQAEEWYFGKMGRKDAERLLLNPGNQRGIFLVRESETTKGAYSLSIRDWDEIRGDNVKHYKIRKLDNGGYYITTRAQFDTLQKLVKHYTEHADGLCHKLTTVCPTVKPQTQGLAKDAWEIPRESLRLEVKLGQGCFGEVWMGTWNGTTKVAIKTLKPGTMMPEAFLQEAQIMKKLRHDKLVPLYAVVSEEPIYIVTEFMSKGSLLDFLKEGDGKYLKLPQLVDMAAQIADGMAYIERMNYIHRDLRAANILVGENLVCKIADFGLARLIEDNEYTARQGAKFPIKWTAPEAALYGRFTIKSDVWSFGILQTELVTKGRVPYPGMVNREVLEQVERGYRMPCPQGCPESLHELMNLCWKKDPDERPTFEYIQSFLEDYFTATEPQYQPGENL

Compound	First screening IR (inhibition rate)
COc1cc(Br)c(S(=O)(=O)N(C)C(=O)C2CC2)cc1OC [Compound Z643690740]	0%
CC(C)(C(=O)N1CCN(C(=O)C2CCC(=O)NC2)CC1)c1ccccc1 (centres unmarked) [Compound Z645877938]	-20%
Cn1cc(Nc2nccc(C(F)(F)F)n2)cn1 [Compound Z646439314]	5%
CC(C)c1ccc2cc(C(=O)NCCN3CCS(=O)(=O)CC3)[nH]c2c1 [Compound Z649805708]	-31%
CS(=O)(=O)c1ccc(F)c(S(C)(=O)=O)c1 [Compound Z652718652]	31%
CS(=O)(=O)c1ccc(N2CCC2)c(S(C)(=O)=O)c1 [Compound Z666133744]	8%
CCN(CC(C)C)c1ccc(S(C)(=O)=O)cc1S(C)(=O)=O [Compound Z666139280]	7%
CN(CC1CC1)c1ccc(S(C)(=O)=O)cc1S(C)(=O)=O [Compound Z666145136]	52%
NC(=O)c1cnc(NCc2ccnc(N3CCCCC3)c2)c(Cl)c1 [Compound Z729056808]	2%
CCCNC(=O)CN(CCC)C(=O)c1cc(-c2ccccc2)nc2c1cnn2CC [Compound Z729700802]	0%
O=C1CC(C(=O)Nc2cc(CC3CCCCC3)[nH]n2)c2ccc(F)cc2N1 (centres unmarked) [Compound Z729744666]	22%
O=[N+]([O-])c1ccc(Nc2cccc(N3CCCC3)c2)c([N+](=O)[O-])c1 [Compound Z729847414]	20%
C#CCN(C1CCS(=O)(=O)C1)S(=O)(=O)c1ccccc1F (centres unmarked) [Compound Z734126534]	-10%
CC(C)(C)n1nc(C(=O)Nc2cccc(C3SCCCS3)c2)cc1C1CC1 [Compound Z735448522]	2%
CCS(=O)(=O)c1ccc(S(=O)(=O)N2CCCSCC2)cc1 [Compound Z736543988]	32%
CCN(C(C)C)S(=O)(=O)c1ccc(S(C)(=O)=O)cc1 [Compound Z736710192]	-4%

Compound	First screening IR (inhibition rate)
C/C=C/C=C/C(=O)NCc1cccc(C(=O)NCc2ccco2)c1 [Compound Z737550454]	0%
CN(C(=O)c1ccc(NC(=O)C2CCCO2)cc1Cl)C1CCCCC1 (centres unmarked) [Compound Z738379554]	3%
CN(C(=O)c1ccc(C2SCCCS2)cc1)c1ccc(C(N)=O)cc1 [Compound Z740420934]	0%
O=C(Nc1cc(Cl)cc(Br)c1OC(F)F)C(=O)N1CCCSCC1 [Compound Z754942410]	13%
Cc1noc(C)c1COC(=O)c1c[nH]cc1-c1ccc(Cl)s1 [Compound Z796939908]	0%
NCCN1C(=O)C2C3C=CC(C3)C2C1=O (centres unmarked) [Compound Z803067872]	7%
CCS(=O)(=O)N1CCN(S(=O)(=O)C2CCS(=O)(=O)C2)CC1 (centres unmarked) [Compound Z805634984]	2%
CS(=O)(=O)CCS(=O)(=O)c1ccc(N)cc1 [Compound Z808591212]	-1%
O=C1Cc2cc(S(=O)(=O)N3CCCc4cccc(OC(F)F)c43)ccc2N1 [Compound Z815677014]	-4%
CCCN1CCN(c2ccc(Nc3ccc4nnnn4n3)cc2Cl)CC1 [Compound Z815791244]	-24%
Cn1ncc2c(N3CCCC3CO)ncnc21 (centres unmarked) [Compound Z817034034]	3%
Cn1c(=O)c2cc(C(=O)Nc3ccc(F)c(Cl)c3)sc2n(C)c1=O [Compound Z818806818]	-3%
CC(C)(C)c1[nH]ncc1/C=C1/CCn2c1nc1cc(Cl)ccc1c2=O [Compound Z821199838]	-3%
Cc1cccc(CS(=O)(=O)CCS(C)(=O)=O)c1 [Compound Z822335078]	-2%
CC(C)(C)c1ncc(C(=O)Nc2ccc(F)c(NC(=O)C3CC3)c2)s1 [Compound Z825945954]	-24%

Now from value to compound:

First screening IR (inhibition rate)	Compound
10%	CCCn1c(NC(=O)c2ccc3c(c2)S(=O)(=O)N(C(C)C)C3=O)nc2ccccc21 [Compound Z641940000]
-21%	FC(F)(F)c1ccnc(Nc2ccc(N3CCCCCC3)cc2)n1 [Compound Z642699568]
2%	CC(Nc1ccc(C#N)cn1)c1ccc(OCc2cccnc2)cc1 (centres unmarked) [Compound Z644822950]
14%	Cc1occc1C(=O)Nc1cc(Nc2nccc(C(F)(F)F)n2)ccc1F [Compound Z645121524]
-2%	COCCOc1ccc(CNc2ncnc3ccccc23)cn1 [Compound Z645525338]
-38%	Cn1ncc2c(NCCOc3ccc4c(c3)OCO4)ncnc21 [Compound Z645593692]
8%	Cc1cccc(C)c1OC1CCN(c2ncnc3c2cnn3C)CC1 [Compound Z646031500]
11%	O=C1OCCN1Cc1ccc(Nc2nccc(C(F)(F)F)n2)cc1 [Compound Z646432252]
5%	CC(NC(=O)Cn1nc(-c2ccccc2)ccc1=O)c1nc2ccccc2[nH]1 (centres unmarked) [Compound Z647256318]
-7%	O=C(Nc1c[nH]ccc1=O)c1ccc2c(c1)CC(c1ccccc1)OC2=O (centres unmarked) [Compound Z649184702]
-10%	O=C(CCNC(=O)c1cc2cc(F)ccc2[nH]1)Nc1ccccn1 [Compound Z649200126]
-2%	Cc1cnc(C(=O)Nc2ccc3nc(-c4ccc(F)cc4)[nH]c3c2)cn1 [Compound Z651750688]
-14%	O=C(CCc1cnn(-c2ccccc2)c1)Nc1n[nH]c(-c2ccccn2)n1 [Compound Z653343234]
-3%	Cc1ccc2[nH]c(C)c(CC(=O)Nc3n[nH]c(-c4ccccn4)n3)c2c1 [Compound Z653347886]
1%	COc1cc(CNC(=O)c2ccc[nH]c2=O)ccc1OCC(N)=O [Compound Z666252570]
-9%	Cc1cccn2cc(-c3ccc(NC(=O)c4ccc(=O)[nH]c4)cc3)nc12 [Compound Z666279820]
-2%	Cc1nn(-c2ccc(Br)cc2)c(C)c1C(=O)Nc1ncn[nH]1 [Compound Z727167436]
45%	c1ccc2nc(Nc3cn[nH]c3)cnc2c1 [Compound Z729018028]
-20%	CNc1ccc(Nc2nccc(C(F)(F)F)n2)cn1 [Compound Z729056288]
-9%	COCCCn1c(=O)c2ccccc2n2c(=S)n(CN(Cc3ccc(N(C)C)cc3)C(C)C)nc12 [Compound Z729842360]
2%	O=C(CCCNC(=O)c1ccc(-c2ccccc2F)o1)Nc1ccc(Cl)cc1 [Compound Z730571712]

First screening IR (inhibition rate)	Compound
-2%	Cn1c2ccccc2n2c3ccccc3c(=O)c(C#N)c12 [Compound Z734296158]
-1%	Cn1c2ccccc2n2c3cccc(F)c3c(=O)c(C#N)c12 [Compound Z734467112]
4%	Brc1ccc2nc(CNCc3cnc(-c4ccccc4)nc3)cn2c1 [Compound Z736057568]
55%	Cn1c(C(=O)Nc2ccc(NC(=O)c3ccco3)c(Cl)c2)cc2ccccc21 [Compound Z751335838]
14%	Cc1nc(NCCn2cccn2)c2cnn(-c3ccccc3)c2n1 [Compound Z751573116]
-7%	Cn1ccnc1C(O)(CC(=O)Nc1ccc(Oc2ncccn2)cc1)C(F)(F)F (centres unmarked) [Compound Z757638538]
51%	O=C(Nc1ccc2nc(-c3ccco3)[nH]c2c1)c1ccc(Cl)nc1 [Compound Z757780044]
-1%	Cn1c(C(=O)Oc2ccc(NC(=O)c3ccco3)cc2)cc2ccccc21 [Compound Z762214972]
63%	O=C1CCc2cc(OC(=O)c3cn(-c4ccccc4)nc3-c3cccs3)ccc2N1 [Compound Z764721614]
0%	NC(=O)Nc1ccc(-c2csc(CCc3ccccc3)n2)cc1 [Compound Z785638578]
-19%	CCOC(=O)N(C)c1ccc(Nc2nccc(C(F)(F)F)n2)cc1 [Compound Z805455424]
-1%	CN(c1ccc(I)cc1)S(=O)(=O)c1cn[nH]c1 [Compound Z805651486]
2%	O=C(c1ccc(OCC2CC2)cc1)N1CCC(c2nnc3n2CCC3)CC1 [Compound Z809056560]
-15%	Cc1cc(NCC(O)COc2ccc(F)cc2)nc2ccccc12 (centres unmarked) [Compound Z815806580]
-4%	Cc1nc(NCC2CCN(c3ccc(F)cc3)C2)c2cnn(C)c2n1 (centres unmarked) [Compound Z815820560]
9%	O=C(Nc1cnc2ccccc2c1)c1ccc(-n2ccc(C(F)(F)F)n2)cc1 [Compound Z815840280]
-2%	NC(=O)c1ccc(COc2ccc(I)cc2)c(F)c1 [Compound Z816021628]
23%	O=C(Oc1cccnc1Br)c1nn(-c2ccccc2)c(=O)c2ccccc12 [Compound Z817738176]
-29%	CS(=O)(=O)c1ccc(C(=O)NCc2ccc(-n3ccnc3)c(F)c2)cc1 [Compound Z826157056]
9%	CC(C)n1ncc2cc(C(=O)NCc3ccc(-n4ccnc4)c(F)c3)cnc21 [Compound Z826159196]

Same assay, conditions: second screening, dissolved from fresh powder; n = 4; 10 μmol L−1 compound

Second screening IR (inhibition rate)	Compound
-12%	c1ccc2nc(Nc3cn[nH]c3)cnc2c1 [Compound Z729018028]
-5%	O=C1CCc2cc(OC(=O)c3cn(-c4ccccc4)nc3-c3cccs3)ccc2N1 [Compound Z764721614]
